Literature values, collected in patent US20170035825A1, “FOOD SUPPLEMENT COMPOSITION COMPRISING A CUCUMBER (CUCUMIS SATIVUS) EXTRACT” (NATURALEA SA, priority 2014, published 2017).

Test system: uterus explants

O=C(O)[C@@H]1NC[C@H](O)[C@@H](O)[C@@H]1O [ido-BR1, (2R,3R,4R,5S)-3,4,5-trihydroxypiperidine-2-carboxylic acid]
effect on inflammation at 72 h (72 h): not significant
inflammation in the uterus explants (dose-dependent): abrogated inflammation in the uterus explants
